From US20240226319A1, “EGFR TARGETING FC ANTIGEN BINDING FRAGMENT-DRUG CONJUGATES” (MERCK PATENT GMBH, priority 2021, published 2024) come the findings set out here.

In data set [1] the test system is EGFR positive (MDA MB 468 and A431) and EGFR negative (MCF 7) cells. The experiment in a line: Cellular binding analysis by flow cytometry. In kind it is cell-based, human. The settings on record: 100 nM, 60 min at 4° C., AF488-labeled detection antibody.
Data set [2] in a line: Thermal unfolding by nanoDSF. In kind it is physicochemical. The settings on record: PBS pH 6.8, 20 to 95° C. at 1° C./min. As to the method:
FIG. 10 Thermal stability of Fcabs and huFc control molecule. The first derivative of thermal unfolding curves (A) as well as the unfolding transition midpoints (Tm) (B) are shown. To determine thermal unfolding, Fcabs and huFc (PBS pH 6.8) were loaded into nanoDSF grade standard capillaries which were then transferred into a Prometheus NT.PLEX nanoDSF (NanoTemper Technologies) instrument. Samples were subjected to a linear thermal ramp from 20° C. to 95° C. at a slope of 1° C./min with simultaneous recording of fluorescence at 350 and 330 nm. Unfolding transition midpoints (Tm) were determined from the first derivative of the fluorescence ratio 350 nm/330 nm. All samples were measured in duplicates. n.d.—not detected
As a negative control, we included an unmodified human Fc (huFc) fragment. As EGFR-binding references, a Cetuximab-based full length IgG (C-IgG) and a Cetuximab-derived Fab (C-Fab) fragment, both equipped with a sortase A (SrtA) recognition motif (LPETG) at the C-terminal end of the light chain, were included. […] Moreover, we evaluated functional and selective cellular binding of the purified constructs (FIG. 11, FIG. 12). […] To ensure comparability between individual fluorescence intensities resulting from differently labeled constructs, the fluorescence signals were normalized. […]
For orientation: In DSF a fluorescence change marks the thermal transition of the protein.

As to “huFc: Modified human IgG1 Fc fragment (D265A), negative control, SEQ ID No. 7”, in data set [1], the cellular binding result was “do not show any binding”. For the same substance, the “unfolding transition midpoint Tm,1” value in data set [2] was 66 °C.
